Laboratory results published in patent publication US20160058829A1, “ANTI-FIBROTIC PEPTIDES AND THEIR USE IN METHODS FOR TREATING DISEASES AND DISORDERS CHARACTERIZED BY FIBROSIS” (Thrasos Innovation, Inc., priority 2011, published 2016).
Positions of bridges follow the written chain, without caps; N, C: chain ends. Non-standard residues stand in square brackets, D forms with d. *: point of attachment. Dap = NC[C@H](N)C(=O)O; For = O=C*

Test system: human proximal tubule epithelial cells (HK2)
Experiment: D-glucose-induced EMT assay, E-cadherin immunofluorescence with colorimetric image analysis
Type: cell-based
Settings: for Percent inhibition of D-glucose-induced EMT: 0% = D-glucose untreated, 100% = media without D-glucose
Protocol: Chronic hyperglycemia is a known cause of renal fibrosis in type 2 diabetes. The assay in this example induces the transdifferentiation from the epithelial to the mesenchymal phenotype (EMT) in human proximal tubule epithelial cells (HK2) by exposing them to high levels of D-glucose (100 mM and 200 mM). […] Exposure to 100 mM D-glucose results in the loss of E-cadherine expression as evidenced by the loss of the fluorescene signal. Using this assay test compounds are evaluated based on their ability to inhibit the EMT processes in the presence of high levels of D-glucose. FIGS. 4-16 are fluorescence micrographs of HK2 cells exposed to 100 mM D-glucose and 100 uM of SEQ IS NOs 1 through 11, respectively. Note that all but SEQ ID NOs 10 and 11 were able to preserve the epithelial phenotype (i.e., inhibit the EMT).
Results are provided in the context of FIG. 1 and Table 3, below. In Table 3 below, compound response is scored using image analysis as described herein in the method of Methods and Materials, part C. A 0% response corresponds to the signal for 100 mM (or 200 mM) D-glucose (untreated) while the 100% response corresponds to the signal for media in the absence of D-glucose.
It has been shown that transdifferentiation of proximal tubular epithelial cells is a critical step in the development of renal fibrosis, and that this is associated with a loss of the epithelial phenotypic marker, E-cadherin expression. This provides the basis for the development of a cell-based screening assay in which high concentrations of D-Glucose (50-100 mM) are used to induce a loss of E-cadherin expression in human renal proximal tubular epithelial (HK-2) cells, and compounds are tested for their ability to reverse the loss E-cadherin expression.
Materials: • Human proximal tubular epithelial cells, HK-2 (ATCC #CRL-2190) • Serum-free keratinocyte medium (GIBCO #17005-042, K-SFM) • Epidermal growth factor (EGF: 5 ng/mL) • Bovine pituitary extract (BPE: 40 ug/mL) • Primary antibody, Mouse IgG anti-E-cadherin (R&D Systems # MAB1838) • BSA [Sigma #A7030] • secondary antibody, FITC-conjugated Goat anti-mouse IgG (Fab2) fragment (Sigma-Aldrich # F-2653) • Paraformaldehyde (10%)) • Triton X-100 (Sigma # T-9284) • PBS (Fisher Scientific #BP399-1) • D-PBS (Invitrogen #14190-144) • Polypropylene tips (Axygen, Inc. 0.5-10 uL, cat # T-300-L-R; 1-200 uL, Cat # T-200-L-R; 1-1000 uL, Cat # T-1000-C-L-R) • 50 mL polypropylene culture tubes (Fisher Scientific, cat #06-443-18) • 24-well Coster cell culture plates (Fisher Scientific #07-200-84)
Reagents & Test Samples: • Positive control: BMP-7, assayed at concentrations 0.1 and 1 ug/mL • Test compounds (peptides): each tested at final concentrations 100 uM and 200 uM.
Assay Procedure for Cell Culture Assay: • Run assay in 24-well culture plates. • Seed HK-2 cells at a density between 25,000 and 30,000 cells per well in lmL K-SFM medium with supplements added (growth medium) • Incubate HK-2 cells for 24 hours at 37° C., and let cells attach the plate • Next Day afternoon, change the medium with K-SFM medium with no added supplements (serum free medium) in all wells except the first two control wells. • Continue incubating HK-2 cells overnight at 37° C. • Next Day, aspirate the medium from all wells. Incubate the cells in growth medium (first two control wells) or expose them to test compounds for 2 hours at 37° C. Final concentrations of each Test compound are 100 and 200 uM. BMP-7 serves as a positive control in the assay. • After incubation, add D-glucose to all wells except first two control wells. Final concentrations of D-Glucose are 50 and 100 mM. • Incubate HK-2 cells for 60 hours at 37° C. • Aspirate the medium from all wells. To the wells, add pre-warmed growth medium or serum free medium containing D-glucose alone or D-glucose and test compound or D-glucose and BMP-7. Final concentrations of D-Glucose and Test compound are the same as above. • Continue incubating HK-2 cells for 24 hours at 37° C. […]

Row | Substance | Percent inhibition of D-glucose-induced EMT (100 uM peptide) | Percent inhibition of D-glucose-induced EMT (200 uM peptide) | preservation of the epithelial phenotype (inhibition of EMT), anti-fibrotic effect (HK2 cells, high D-glucose)
1 | 1 (H-CYFDDSSNVLCKKYRS-OH; disulfide 1-11; SMILES CC(C)C[C@@H]1NC(=O)[C@H](C(C)C)NC(=O)[C@H](CC(N)=O)NC(=O)[C@H](CO)NC(=O)[C@H](CO)NC(=O)[C@H](CC(=O)O)NC(=O)[C@H](CC(=O)O)NC(=O)[C@H](Cc2ccccc2)NC(=O)[C@H](Cc2ccc(O)cc2)NC(=O)[C@@H](N)CSSC[C@@H](C(=O)N[C@@H](CCCCN)C(=O)N[C@@H](CCCCN)C(=O)N[C@@H](Cc2ccc(O)cc2)C(=O)N[C@@H](CCCNC(=N)N)C(=O)N[C@@H](CO)C(=O)O)NC1=O) [compound 1] | 125% | 98% | –
2 | 2 (H-DYFDDSSNVL[Dap]KKYRS-OH; SMILES CC(C)C[C@H](NC(=O)[C@@H](NC(=O)[C@H](CC(N)=O)NC(=O)[C@H](CO)NC(=O)[C@H](CO)NC(=O)[C@H](CC(=O)O)NC(=O)[C@H](CC(=O)O)NC(=O)[C@H](Cc1ccccc1)NC(=O)[C@H](Cc1ccc(O)cc1)NC(=O)[C@@H](N)CC(=O)O)C(C)C)C(=O)N[C@@H](CN)C(=O)N[C@@H](CCCCN)C(=O)N[C@@H](CCCCN)C(=O)N[C@@H](Cc1ccc(O)cc1)C(=O)N[C@@H](CCCNC(=N)N)C(=O)N[C@@H](CO)C(=O)O) [compound 2] | 167% | 96% | –
3 | 3 (H-[Dap]YFDDSSNVLDKKYRS-OH; SMILES CC(C)C[C@H](NC(=O)[C@@H](NC(=O)[C@H](CC(N)=O)NC(=O)[C@H](CO)NC(=O)[C@H](CO)NC(=O)[C@H](CC(=O)O)NC(=O)[C@H](CC(=O)O)NC(=O)[C@H](Cc1ccccc1)NC(=O)[C@H](Cc1ccc(O)cc1)NC(=O)[C@@H](N)CN)C(C)C)C(=O)N[C@@H](CC(=O)O)C(=O)N[C@@H](CCCCN)C(=O)N[C@@H](CCCCN)C(=O)N[C@@H](Cc1ccc(O)cc1)C(=O)N[C@@H](CCCNC(=N)N)C(=O)N[C@@H](CO)C(=O)O) [compound 3] | 67% | 128% | –
4 | 4 (H-CYYDNSSSVLCKRYRS-OH; disulfide 1-11; not fully specified (residue 14)) [compound 4] | 99% | 130% | –
5 | 5 (H-CYYDNSSSVLCKRYRS-OH; disulfide 1-11; SMILES CC(C)C[C@@H]1NC(=O)[C@H](C(C)C)NC(=O)[C@H](CO)NC(=O)[C@H](CO)NC(=O)[C@H](CO)NC(=O)[C@H](CC(N)=O)NC(=O)[C@H](CC(=O)O)NC(=O)[C@H](Cc2ccc(O)cc2)NC(=O)[C@H](Cc2ccc(O)cc2)NC(=O)[C@@H](N)CSSC[C@@H](C(=O)N[C@@H](CCCCN)C(=O)N[C@@H](CCCNC(=N)N)C(=O)N[C@@H](Cc2ccc(O)cc2)C(=O)N[C@@H](CCCNC(=N)N)C(=O)N[C@@H](CO)C(=O)O)NC1=O) [compound 5] | 33% | 84% | –
6 | 6 (For-CYYDNSSSVLCKRYRS-OH; disulfide 1-11; SMILES CC(C)C[C@@H]1NC(=O)[C@H](C(C)C)NC(=O)[C@H](CO)NC(=O)[C@H](CO)NC(=O)[C@H](CO)NC(=O)[C@H](CC(N)=O)NC(=O)[C@H](CC(=O)O)NC(=O)[C@H](Cc2ccc(O)cc2)NC(=O)[C@H](Cc2ccc(O)cc2)NC(=O)[C@@H](NC=O)CSSC[C@@H](C(=O)N[C@@H](CCCCN)C(=O)N[C@@H](CCCNC(=N)N)C(=O)N[C@@H](Cc2ccc(O)cc2)C(=O)N[C@@H](CCCNC(=N)N)C(=O)N[C@@H](CO)C(=O)O)NC1=O) [compound 6] | 88% | 109% | –
7 | 7 (Ac-CYYDNSSSVLCKRYRS-OH; disulfide 1-11; SMILES CC(=O)N[C@H]1CSSC[C@@H](C(=O)N[C@@H](CCCCN)C(=O)N[C@@H](CCCNC(=N)N)C(=O)N[C@@H](Cc2ccc(O)cc2)C(=O)N[C@@H](CCCNC(=N)N)C(=O)N[C@@H](CO)C(=O)O)NC(=O)[C@H](CC(C)C)NC(=O)[C@H](C(C)C)NC(=O)[C@H](CO)NC(=O)[C@H](CO)NC(=O)[C@H](CO)NC(=O)[C@H](CC(N)=O)NC(=O)[C@H](CC(=O)O)NC(=O)[C@H](Cc2ccc(O)cc2)NC(=O)[C@H](Cc2ccc(O)cc2)NC1=O) [compound 7] | 65% | 103% | –
8 | 8 (H-CYYDNSSSVLCKKYRS-OH; disulfide 1-11; SMILES CC(C)C[C@@H]1NC(=O)[C@H](C(C)C)NC(=O)[C@H](CO)NC(=O)[C@H](CO)NC(=O)[C@H](CO)NC(=O)[C@H](CC(N)=O)NC(=O)[C@H](CC(=O)O)NC(=O)[C@H](Cc2ccc(O)cc2)NC(=O)[C@H](Cc2ccc(O)cc2)NC(=O)[C@@H](N)CSSC[C@@H](C(=O)N[C@@H](CCCCN)C(=O)N[C@@H](CCCCN)C(=O)N[C@@H](Cc2ccc(O)cc2)C(=O)N[C@@H](CCCNC(=N)N)C(=O)N[C@@H](CO)C(=O)O)NC1=O) [compound 8] | 155% | 104% | –
9 | 9 (H-[Dap]YYDNSSSVLDKRYRS-OH; SMILES CC(C)C[C@H](NC(=O)[C@@H](NC(=O)[C@H](CO)NC(=O)[C@H](CO)NC(=O)[C@H](CO)NC(=O)[C@H](CC(N)=O)NC(=O)[C@H](CC(=O)O)NC(=O)[C@H](Cc1ccc(O)cc1)NC(=O)[C@H](Cc1ccc(O)cc1)NC(=O)[C@@H](N)CN)C(C)C)C(=O)N[C@@H](CC(=O)O)C(=O)N[C@@H](CCCCN)C(=O)N[C@@H](CCCNC(=N)N)C(=O)N[C@@H](Cc1ccc(O)cc1)C(=O)N[C@@H](CCCNC(=N)N)C(=O)N[C@@H](CO)C(=O)O) [compound 9] | 83% | 125% | –
10 | 10 (H-CYFNDSSQVLCKRYRS-OH; disulfide 1-11; SMILES CC(C)C[C@@H]1NC(=O)[C@H](C(C)C)NC(=O)[C@H](CCC(N)=O)NC(=O)[C@H](CO)NC(=O)[C@H](CO)NC(=O)[C@H](CC(=O)O)NC(=O)[C@H](CC(N)=O)NC(=O)[C@H](Cc2ccccc2)NC(=O)[C@H](Cc2ccc(O)cc2)NC(=O)[C@@H](N)CSSC[C@@H](C(=O)N[C@@H](CCCCN)C(=O)N[C@@H](CCCNC(=N)N)C(=O)N[C@@H](Cc2ccc(O)cc2)C(=O)N[C@@H](CCCNC(=N)N)C(=O)N[C@@H](CO)C(=O)O)NC1=O) [compound 10] | 20% | 17% | –
11 | 11 (H-CYYDDSSSVLCKKYRS-OH; disulfide 1-11; SMILES CC(C)C[C@@H]1NC(=O)[C@H](C(C)C)NC(=O)[C@H](CO)NC(=O)[C@H](CO)NC(=O)[C@H](CO)NC(=O)[C@H](CC(=O)O)NC(=O)[C@H](CC(=O)O)NC(=O)[C@H](Cc2ccc(O)cc2)NC(=O)[C@H](Cc2ccc(O)cc2)NC(=O)[C@@H](N)CSSC[C@@H](C(=O)N[C@@H](CCCCN)C(=O)N[C@@H](CCCCN)C(=O)N[C@@H](Cc2ccc(O)cc2)C(=O)N[C@@H](CCCNC(=N)N)C(=O)N[C@@H](CO)C(=O)O)NC1=O) [compound 11] | – | −13% | –
12 | (H)-CYFNDSSQVLCKRYRS-(OH) (H-CYFNDSSQVLCKRYRS-OH; disulfide 1-11; SMILES CC(C)C[C@@H]1NC(=O)[C@H](C(C)C)NC(=O)[C@H](CCC(N)=O)NC(=O)[C@H](CO)NC(=O)[C@H](CO)NC(=O)[C@H](CC(=O)O)NC(=O)[C@H](CC(N)=O)NC(=O)[C@H](Cc2ccccc2)NC(=O)[C@H](Cc2ccc(O)cc2)NC(=O)[C@@H](N)CSSC[C@@H](C(=O)N[C@@H](CCCCN)C(=O)N[C@@H](CCCNC(=N)N)C(=O)N[C@@H](Cc2ccc(O)cc2)C(=O)N[C@@H](CCCNC(=N)N)C(=O)N[C@@H](CO)C(=O)O)NC1=O) [SEQ ID NO: 10] | – | – | very weak anti-fibrotic effect
